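Grown in 96-well plates, cells were treated for 48 hours with each compound at five concentrations. Insufficient inhibition: endpoint recorded as highest concentration tested. GI50 = concentration required for 50% inhibition of growth. TGI: total growth inhibition.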
Tests used:
Assay in all cases: NCI-60 cell line screen, 48 h
NCI-H226 lung = tested on: NCI-H226 lung
MDA-MB-231 breast = tested on: MDA-MB-231 breast
LOX IMVI melanoma = tested on: LOX IMVI melanoma
SW-620 colon = tested on: SW-620 colon
T-47D breast = tested on: T-47D breast
SK-MEL-2 melanoma = tested on: SK-MEL-2 melanoma
A498 renal = tested on: A498 renal
SK-OV-3 ovarian = tested on: SK-OV-3 ovarian
EKVX NSCLC = tested on: EKVX NSCLC
HOP-62 NSCLC = tested on: HOP-62 NSCLC
NCI/ADR-RES ovarian = tested on: NCI/ADR-RES ovarian
M14 melanoma = tested on: M14 melanoma
KM12 colon = tested on: KM12 colon
RXF 393 renal = tested on: RXF 393 renal
K-562 leukemia = tested on: K-562 leukemia
NCI-H460 lung = tested on: NCI-H460 lung
HS 578T breast = tested on: HS 578T breast
SK-MEL-5 melanoma = tested on: SK-MEL-5 melanoma
CAKI-1 renal = tested on: CAKI-1 renal
BT-549 breast = tested on: BT-549 breast
COLO 205 colon = tested on: COLO 205 colon
UACC-257 melanoma = tested on: UACC-257 melanoma
SN12C renal = tested on: SN12C renal
HCC-2998 colon = tested on: HCC-2998 colon
HL-60(TB) leukemia = tested on: HL-60(TB) leukemia
IGROV1 ovarian = tested on: IGROV1 ovarian
SF-539 CNS = tested on: SF-539 CNS
PC-3 prostate = tested on: PC-3 prostate
ACHN renal = tested on: ACHN renal
MCF7 breast = tested on: MCF7 breast
MOLT-4 leukemia = tested on: MOLT-4 leukemia
DU-145 prostate = tested on: DU-145 prostate
UO-31 renal = tested on: UO-31 renal
MDA-MB-435 = tested on: MDA-MB-435
SK-MEL-28 melanoma = tested on: SK-MEL-28 melanoma
TK-10 renal = tested on: TK-10 renal
OVCAR-3 ovarian = tested on: OVCAR-3 ovarian
SNB-19 CNS = tested on: SNB-19 CNS
HOP-92 NSCLC = tested on: HOP-92 NSCLC
UACC-62 melanoma = tested on: UACC-62 melanoma
HCT-116 colon = tested on: HCT-116 colon
OVCAR-4 ovarian = tested on: OVCAR-4 ovarian
HT29 colon = tested on: HT29 colon
SF-268 CNS = tested on: SF-268 CNS
HCT-15 colon = tested on: HCT-15 colon
MALME-3M melanoma = tested on: MALME-3M melanoma
OVCAR-8 ovarian = tested on: OVCAR-8 ovarian
NCI-H522 lung = tested on: NCI-H522 lung
SNB-75 CNS = tested on: SNB-75 CNS
RPMI-8226 leukemia = tested on: RPMI-8226 leukemia
A549 NSCLC = tested on: A549 NSCLC
U251 CNS = tested on: U251 CNS
CCRF-CEM leukemia = tested on: CCRF-CEM leukemia
OVCAR-5 ovarian = tested on: OVCAR-5 ovarian
NCI-H23 lung = tested on: NCI-H23 lung
SR leukemia = tested on: SR leukemia
786-0 renal = tested on: 786-0 renal
SF-295 CNS = tested on: SF-295 CNS

For Cc1cn(-c2cccc(NC(=O)c3ccc(C)c(Nc4nccc(-c5cccnc5)n4)c3)c2)cn1, the GI50 (NCI-H226 lung) was 1.59 µM, the TGI (NCI-H226 lung) was 3.32 µM and the GI50 (MDA-MB-231 breast) was 1.63 µM. The TGI (MDA-MB-231 breast) was 3.46 µM, the GI50 (LOX IMVI melanoma) was 1.73 µM and the TGI (LOX IMVI melanoma) was 3.48 µM. The GI50 (SW-620 colon) was 2.25 µM, the TGI (SW-620 colon) was 4.76 µM and the GI50 (T-47D breast) was 1.42 µM. The TGI (T-47D breast) was 9.6 µM, the GI50 (SK-MEL-2 melanoma) was 2.58 µM and the TGI (SK-MEL-2 melanoma) was 7.83 µM. The GI50 (A498 renal) was 10.9 µM, the TGI (A498 renal) was 23 µM and the GI50 (SK-OV-3 ovarian) was 2.03 µM. The TGI (SK-OV-3 ovarian) was 3.52 µM, the GI50 (EKVX NSCLC) was 2.16 µM and the TGI (EKVX NSCLC) was 6 µM. It also gave a GI50 (HOP-62 NSCLC) of 2 µM, a TGI (HOP-62 NSCLC) of 3.77 µM and a GI50 (NCI/ADR-RES ovarian) of 2.83 µM. It also gave a TGI (NCI/ADR-RES ovarian) of 10.1 µM, a GI50 (M14 melanoma) of 2.08 µM and a TGI (M14 melanoma) of 5.47 µM. For the same compound, the GI50 (KM12 colon) was 2.1 µM, the TGI (KM12 colon) was 4.98 µM and the GI50 (RXF 393 renal) was 1.62 µM. It also gave a TGI (RXF 393 renal) of 3.03 µM, a GI50 (K-562 leukemia) of 1.47 µM and a TGI (K-562 leukemia) of 4.17 µM. The GI50 (NCI-H460 lung) was 1.97 µM, the TGI (NCI-H460 lung) was 4.05 µM and the GI50 (HS 578T breast) was 1.77 µM. It also gave a TGI (HS 578T breast) of 5.43 µM, a GI50 (SK-MEL-5 melanoma) of 2.16 µM and a TGI (SK-MEL-5 melanoma) of 7.46 µM. For the same compound, the GI50 (CAKI-1 renal) was 1.6 µM, the TGI (CAKI-1 renal) was 3.05 µM and the GI50 (BT-549 breast) was 1.49 µM. For the same compound, the TGI (BT-549 breast) was 3.11 µM, the GI50 (COLO 205 colon) was 2.09 µM and the TGI (COLO 205 colon) was 3.65 µM. It also gave a GI50 (UACC-257 melanoma) of 1.59 µM, a TGI (UACC-257 melanoma) of 3 µM and a GI50 (SN12C renal) of 2.1 µM. For the same compound, the TGI (SN12C renal) was 4.7 µM, the GI50 (HCC-2998 colon) was 3.05 µM and the TGI (HCC-2998 colon) was 8.02 µM. It also gave a GI50 (HL-60(TB) leukemia) of 4.61 µM, a TGI (HL-60(TB) leukemia) of 19.8 µM and a GI50 (IGROV1 ovarian) of 2.08 µM. It also gave a TGI (IGROV1 ovarian) of 3.92 µM, a GI50 (SF-539 CNS) of 1.45 µM and a TGI (SF-539 CNS) of 2.97 µM. The GI50 (PC-3 prostate) was 2.33 µM, the TGI (PC-3 prostate) was 13.5 µM and the GI50 (ACHN renal) was 1.69 µM. For the same compound, the TGI (ACHN renal) was 3.17 µM, the GI50 (MCF7 breast) was 1.94 µM and the TGI (MCF7 breast) was 4.74 µM. It also gave a GI50 (MOLT-4 leukemia) of 1.92 µM, a TGI (MOLT-4 leukemia) of 6.56 µM and a GI50 (DU-145 prostate) of 3.73 µM. The TGI (DU-145 prostate) was 17.9 µM, the GI50 (UO-31 renal) was 1.5 µM and the TGI (UO-31 renal) was 3.05 µM. The GI50 (MDA-MB-435) was 1.86 µM, the TGI (MDA-MB-435) was 3.87 µM and the GI50 (SK-MEL-28 melanoma) was 1.8 µM. For the same compound, the TGI (SK-MEL-28 melanoma) was 3.18 µM, the GI50 (TK-10 renal) was 2.04 µM and the TGI (TK-10 renal) was 3.6 µM. For the same compound, the GI50 (OVCAR-3 ovarian) was 1.95 µM, the TGI (OVCAR-3 ovarian) was 3.84 µM and the GI50 (SNB-19 CNS) was 2.4 µM. The TGI (SNB-19 CNS) was greater than 100 µM, the GI50 (HOP-92 NSCLC) was 1.18 µM and the TGI (HOP-92 NSCLC) was 2.51 µM. It also gave a GI50 (UACC-62 melanoma) of 1.65 µM, a TGI (UACC-62 melanoma) of 3.35 µM and a GI50 (HCT-116 colon) of 1.64 µM. For the same compound, the TGI (HCT-116 colon) was 3.05 µM, the GI50 (OVCAR-4 ovarian) was 1.71 µM and the TGI (OVCAR-4 ovarian) was 3.11 µM. For the same compound, the GI50 (HT29 colon) was 1.98 µM, the TGI (HT29 colon) was 3.74 µM and the GI50 (SF-268 CNS) was 2.92 µM. It also gave a TGI (SF-268 CNS) of 9.58 µM, a GI50 (HCT-15 colon) of 2.73 µM and a TGI (HCT-15 colon) of 8.26 µM. It also gave a GI50 (MALME-3M melanoma) of 1.51 µM, a TGI (MALME-3M melanoma) of 2.99 µM and a GI50 (OVCAR-8 ovarian) of 1.1 µM. It also gave a TGI (OVCAR-8 ovarian) of 2.5 µM, a GI50 (NCI-H522 lung) of 1.44 µM and a TGI (NCI-H522 lung) of 3.07 µM. For the same compound, the GI50 (SNB-75 CNS) was 1.59 µM, the TGI (SNB-75 CNS) was 2.97 µM and the GI50 (RPMI-8226 leukemia) was 1.87 µM. It also gave a TGI (RPMI-8226 leukemia) of 5.41 µM, a GI50 (A549 NSCLC) of 1.55 µM and a TGI (A549 NSCLC) of 3.34 µM. It also gave a GI50 (U251 CNS) of 1.69 µM, a TGI (U251 CNS) of 3.39 µM and a GI50 (CCRF-CEM leukemia) of 1.23 µM. It also gave a TGI (CCRF-CEM leukemia) of 10.9 µM, a GI50 (OVCAR-5 ovarian) of 1.88 µM and a TGI (OVCAR-5 ovarian) of 3.68 µM. It also gave a GI50 (NCI-H23 lung) of 3.01 µM, a TGI (NCI-H23 lung) of 10 µM and a GI50 (SR leukemia) of 2.08 µM. The TGI (SR leukemia) was 5.02 µM.
With O=c1[nH]nc(-c2ccccc2)n1/N=C/c1cccc([N+](=O)[O-])c1 the TGI (NCI-H226 lung) was greater than 100 µM, the TGI (MDA-MB-231 breast) was greater than 100 µM and the TGI (LOX IMVI melanoma) was greater than 100 µM. It also gave a TGI (SW-620 colon) greater than 100 µM, a TGI (T-47D breast) greater than 100 µM and a TGI (SK-MEL-2 melanoma) greater than 100 µM. For the same compound, the TGI (A498 renal) was greater than 100 µM, the TGI (SK-OV-3 ovarian) was greater than 100 µM and the TGI (EKVX NSCLC) was greater than 100 µM. For the same compound, the TGI (HOP-62 NSCLC) was greater than 100 µM, the TGI (NCI/ADR-RES ovarian) was greater than 100 µM and the TGI (M14 melanoma) was greater than 100 µM. It also gave a TGI (KM12 colon) greater than 100 µM, a TGI (RXF 393 renal) greater than 100 µM and a TGI (K-562 leukemia) greater than 100 µM. It also gave a TGI (786-0 renal) greater than 100 µM, a TGI (NCI-H460 lung) greater than 100 µM and a TGI (HS 578T breast) greater than 100 µM. For the same compound, the TGI (SK-MEL-5 melanoma) was greater than 100 µM, the TGI (CAKI-1 renal) was greater than 100 µM and the TGI (BT-549 breast) was greater than 100 µM. For the same compound, the TGI (COLO 205 colon) was greater than 100 µM, the TGI (UACC-257 melanoma) was greater than 100 µM and the TGI (SN12C renal) was greater than 100 µM. It also gave a TGI (HCC-2998 colon) greater than 100 µM, a TGI (HL-60(TB) leukemia) greater than 100 µM and a TGI (IGROV1 ovarian) greater than 100 µM. It also gave a TGI (SF-539 CNS) greater than 100 µM, a TGI (PC-3 prostate) greater than 100 µM and a TGI (ACHN renal) greater than 100 µM. It also gave a TGI (MCF7 breast) greater than 100 µM, a TGI (MOLT-4 leukemia) greater than 100 µM and a TGI (DU-145 prostate) greater than 100 µM. The TGI (UO-31 renal) was greater than 100 µM, the TGI (MDA-MB-435) was greater than 100 µM and the TGI (SK-MEL-28 melanoma) was greater than 100 µM. It also gave a TGI (TK-10 renal) greater than 100 µM, a TGI (OVCAR-3 ovarian) greater than 100 µM and a TGI (SNB-19 CNS) greater than 100 µM. The TGI (HOP-92 NSCLC) was greater than 100 µM, the TGI (UACC-62 melanoma) was greater than 100 µM and the TGI (SF-295 CNS) was greater than 100 µM. It also gave a TGI (HCT-116 colon) greater than 100 µM, a TGI (OVCAR-4 ovarian) greater than 100 µM and a TGI (HT29 colon) greater than 100 µM. For the same compound, the TGI (SF-268 CNS) was greater than 100 µM, the TGI (HCT-15 colon) was greater than 100 µM and the TGI (MALME-3M melanoma) was greater than 100 µM. The TGI (OVCAR-8 ovarian) was greater than 100 µM, the TGI (NCI-H522 lung) was greater than 100 µM and the TGI (SNB-75 CNS) was greater than 100 µM. For the same compound, the TGI (RPMI-8226 leukemia) was greater than 100 µM, the TGI (A549 NSCLC) was greater than 100 µM and the TGI (U251 CNS) was greater than 100 µM. The TGI (CCRF-CEM leukemia) was greater than 100 µM, the TGI (OVCAR-5 ovarian) was greater than 100 µM and the TGI (NCI-H23 lung) was greater than 100 µM. For the same compound, the TGI (SR leukemia) was greater than 100 µM.

From PubChem BioAssay (NCI)
